Some test systems named below: UACC-257 melanoma; CCRF-CEM leukemia; BT-549 breast; SK-MEL-5 melanoma; OVCAR-3 ovarian; NCI-H23 lung; MCF7 breast; 786-0 renal; OVCAR-5 ovarian; HCT-15 colon; M14 melanoma; MDA-MB-231 breast; SK-OV-3 ovarian; NCI-H522 lung; PC-3 prostate; A549 NSCLC; RXF 393 renal; LOX IMVI melanoma.
Common to all, as to assay: NCI tumour cell line growth inhibition, 48 h

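Values below derive from 48-hour exposures of cells grown in 96-well plates, with endpoints linearly interpolated between the two concentrations bracketing the appropriate inhibition level. GI50: concentration for 50% inhibition of growth. TGI marks complete inhibition of growth.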

For `COC(=O)C1=C(CCCCO[Si](C)(C)C(C)(C)C)NC(=O)N2[C@@H](CCOCc3ccccc3)CC[C@H]12`, the TGI with UACC-257 melanoma is more than 100 µM; in the experiment with CCRF-CEM leukemia it was 51.9 µM; in the experiment on BT-549 breast, 51 µM; with SK-MEL-5 melanoma, 22.2 µM; in the experiment with OVCAR-3 ovarian it was 30.1 µM; in the experiment on NCI-H23 lung it was 67.9 µM. In addition, the TGI with MCF7 breast is more than 100 µM; with 786-0 renal, 30.9 µM; with OVCAR-5 ovarian it was more than 100 µM; with HCT-15 colon, 43.9 µM; in the experiment with M14 melanoma, 79.4 µM; in the experiment with MDA-MB-231 breast, 52.1 µM. For the same molecule, the TGI with SK-OV-3 ovarian was more than 100 µM; in the experiment on NCI-H522 lung it was 48.2 µM; in the experiment with PC-3 prostate, 75.8 µM; in the experiment on A549 NSCLC, 77.7 µM.

Consider `CN(CCCN(C)CCc1ccc(Cl)c(Cl)c1)CCCN1CCCC1`, for which the TGI in the experiment on UACC-257 melanoma amounted to 3.46 µM; in the experiment with CCRF-CEM leukemia, 2.12 µM; in the experiment on BT-549 breast, 19 µM; with OVCAR-3 ovarian, 14.8 µM; in the experiment with NCI-H23 lung it was 14.3 µM; in the experiment with MCF7 breast, 3.69 µM. Further, the TGI was 2.76 µM in the experiment on 786-0 renal; 15.1 µM in the experiment with OVCAR-5 ovarian; 4.58 µM with RXF 393 renal; 7.22 µM in the experiment with HCT-15 colon; 3.66 µM with M14 melanoma; 3.61 µM in the experiment on MDA-MB-231 breast. Also, the TGI amounted to 23.1 µM with SK-OV-3 ovarian; 3.51 µM in the experiment on NCI-H522 lung; 3.54 µM with LOX IMVI melanoma; 15.1 µM with PC-3 prostate; 11.2 µM in the experiment on A549 NSCLC.

For `C=CCCCC1CCCNC1=S` (stereo unspecified), the TGI with UACC-257 melanoma, in the experiment on BT-549 breast, in the experiment on SK-MEL-5 melanoma, in the experiment with OVCAR-3 ovarian, with NCI-H23 lung and in the experiment with MCF7 breast was more than 100 µM each time. Also, the TGI in the experiment with 786-0 renal, in the experiment with OVCAR-5 ovarian, in the experiment on RXF 393 renal, with HCT-15 colon, in the experiment on M14 melanoma and in the experiment with MDA-MB-231 breast was more than 100 µM in each case. In addition, the TGI in the experiment on SK-OV-3 ovarian, in the experiment with NCI-H522 lung, with PC-3 prostate and in the experiment on A549 NSCLC was more than 100 µM each time.

Turning to `CCOc1cc2c(cc1O)/C(=N/NS(=O)(=O)c1ccc(C)cc1)C[C@@H]1[C@@H]2CC[C@]2(C)[C@@H](O)CC[C@@H]12`, the TGI in the experiment on UACC-257 melanoma, in the experiment with CCRF-CEM leukemia, in the experiment with BT-549 breast, in the experiment with SK-MEL-5 melanoma, in the experiment with OVCAR-3 ovarian and with NCI-H23 lung was more than 100 µM throughout. The TGI with MCF7 breast is more than 100 µM; with 786-0 renal it was more than 100 µM; in the experiment on OVCAR-5 ovarian, 46.4 µM; with RXF 393 renal it was more than 100 µM; in the experiment on HCT-15 colon, more than 100 µM; in the experiment with M14 melanoma, more than 100 µM. In addition, the TGI with MDA-MB-231 breast, in the experiment with SK-OV-3 ovarian, in the experiment on NCI-H522 lung, in the experiment with LOX IMVI melanoma, with PC-3 prostate and in the experiment with A549 NSCLC was more than 100 µM in each case. Besides, the GI50 in the experiment with OVCAR-3 ovarian was 3.18 µM.

As for `CCOC(=O)C1(C/C=C\CBr)CCCCCCCCCCC1=O` (stereo unspecified), the TGI is 31.3 µM in the experiment on UACC-257 melanoma; 31.7 µM in the experiment on BT-549 breast; 26.5 µM in the experiment on SK-MEL-5 melanoma; 9.75 µM in the experiment on OVCAR-3 ovarian; 26.2 µM with NCI-H23 lung; 42.3 µM with MCF7 breast. Further, the TGI in the experiment with 786-0 renal was more than 53 µM; in the experiment on OVCAR-5 ovarian, 35.2 µM; with RXF 393 renal, 25.4 µM; in the experiment with HCT-15 colon it was 32.8 µM; in the experiment with M14 melanoma it was 55 µM; with MDA-MB-231 breast, 17.8 µM. The TGI with SK-OV-3 ovarian is 31.2 µM; in the experiment with NCI-H522 lung, 1.04 µM; in the experiment with LOX IMVI melanoma, 1.66 µM; in the experiment with PC-3 prostate, 25.1 µM; in the experiment on A549 NSCLC, more than 53 µM.

Take `Cc1ccc(S(=O)(=O)NNC2(NS(=O)(=O)c3ccc(Cl)cc3)C(Cl)=C(Cl)C(=O)c3ccccc32)cc1` (stereo unspecified): the TGI in the experiment with UACC-257 melanoma was determined as 32.6 µM; in the experiment with CCRF-CEM leukemia it was 63 µM; with BT-549 breast, 29.1 µM; with SK-MEL-5 melanoma, 28.7 µM; in the experiment on OVCAR-3 ovarian it was 42.1 µM; with NCI-H23 lung it was 34.1 µM. The TGI in the experiment on MCF7 breast turned out to be 37.3 µM; with 786-0 renal, 28.2 µM; in the experiment with OVCAR-5 ovarian, 33.4 µM; in the experiment on RXF 393 renal it was 31.1 µM; in the experiment on HCT-15 colon, 83.8 µM; with M14 melanoma it was 33 µM. The TGI in the experiment on MDA-MB-231 breast is 44.9 µM; with SK-OV-3 ovarian, 32.2 µM; in the experiment on NCI-H522 lung it was more than 100 µM; with LOX IMVI melanoma, 65.1 µM; in the experiment on PC-3 prostate, 33.5 µM; in the experiment with A549 NSCLC, 34.2 µM.

On to `COc1cc2c(cc1OC)C(C)N(C)c1c-2c(OC(C)=O)cc2cc(OC)c(OC)cc12` (stereo unspecified), for which the TGI in the experiment on UACC-257 melanoma was 24.2 µM; in the experiment on CCRF-CEM leukemia, more than 100 µM; in the experiment with BT-549 breast it was 47.1 µM; in the experiment with SK-MEL-5 melanoma it was 15.8 µM; in the experiment on OVCAR-3 ovarian it was more than 100 µM; in the experiment on NCI-H23 lung it was 36.7 µM. The TGI in the experiment with MCF7 breast was 40.2 µM; in the experiment on 786-0 renal, 62 µM; in the experiment with OVCAR-5 ovarian it was more than 100 µM; with RXF 393 renal, 31.1 µM; in the experiment with HCT-15 colon, more than 81.2 µM; in the experiment with M14 melanoma, 28.2 µM. The TGI in the experiment on MDA-MB-231 breast was 27.9 µM; in the experiment with SK-OV-3 ovarian it was more than 100 µM; in the experiment on NCI-H522 lung, 19.2 µM; in the experiment with LOX IMVI melanoma, 39.8 µM; in the experiment with PC-3 prostate, more than 90.8 µM; in the experiment on A549 NSCLC it was more than 69.2 µM.

On to `C/C(=N\NC(=S)NC(C)(C)C)c1ccccn1`, for which the TGI in the experiment on UACC-257 melanoma was more than 100 µM; in the experiment on BT-549 breast it was more than 100 µM; with SK-MEL-5 melanoma it was more than 40 µM; in the experiment on OVCAR-3 ovarian, more than 100 µM; in the experiment on NCI-H23 lung, more than 100 µM; in the experiment with MCF7 breast, more than 100 µM. Besides, the TGI with 786-0 renal is 98.4 µM; with RXF 393 renal it was 23.2 µM; with HCT-15 colon, more than 100 µM; with M14 melanoma, 9.19 µM; in the experiment with MDA-MB-231 breast, more than 100 µM; with SK-OV-3 ovarian, 80.1 µM. In addition, the results for the TGI with NCI-H522 lung, in the experiment with LOX IMVI melanoma and in the experiment on A549 NSCLC were more than 23.1 µM, more than 100 µM and more than 38.4 µM, respectively.

These data come from PubChem BioAssay (NCI).
